In data set [1] the test system is Huh-7, CRFK or CCL1 cells. In words: Nonspecific cytotoxic effects (CC50), CytoTox 96 kit. The conditions noted are these: 72 h, 1 to 100 μM, Table 1.
The subject of a further data set is MERS-CoV. Nature of the data set: microbe, parasite or virus in culture. The class given is cell-based. The conditions noted are these: read-out: EC50 in cell culture (μM) MERS-CoV.
Data set [2] has as its system feline infectious peritonitis (FIP), a coronavirus-induced systemic disease. As to conditions: cited from earlier work.

As for `CC(C)C[C@H](NC(=O)OCc1ccccc1)C(=O)N[C@@H](C[C@@H]1CCNC1=O)C(O)S(=O)(=O)[O-].[Na+]` (stereo partly drawn) [GC376, reference compound], the CC50 (usually the concentration that lowers cell viability or growth by half) in data set [1] was greater than 100000 nM. Also, the EC50 (commonly the concentration giving half of the maximal effect) in the data set on MERS-CoV is […]. The “clinical efficacy in cats with feline infectious peritonitis (FIP)” value in data set [2] was “reversed the progression of FIP and resulted in clinical remission”.

These data come from patent US12583820B2, “Broad spectrum antivirals against coronavirus” (priority 2020, dated 2026).
